pEC50, pIC50: −log10 of the molar value.
Key:
[1] = system: SH-SY5Y cells; test: Human H3 acetylation assay (Western blot), cellular HDAC activity; format: cell-based; settings: 1 and 0.1 µM, 2 and 6 h
Description: Human H3 acetylation assays: for the determination of global and K9-specific acetylation levels, 500,000 SH-SY5Y cells were seeded in 6-well plates in DMEM/F12 1:1 (Sigma), supplemented with 2 mM glutamine (LabClinics) and 10% FBS (Sigma) and incubated at 37 °C and 5% CO2 in a humid atmosphere. […] After 2 and 6 h of treatment, cells were harvested and centrifuged at 250× g for 4 min at room temperature and cell pellets used for total histone extraction with EpiQuik Total Histone Extraction Kit (Epigentek, Farmingdale, NY, USA) following manufacturer’s instructions. 1 µg of histone extracts were run in MOPS buffer in 12% PAGE (Life Technologies, Carlsbad, CA, USA) and transferred with the iBlot system to nitrocellulose membranes. Transferred blots were stained with the Ponceau S solution (Sigma) and scanned with an Epson Perfection V600 Photo Scanner. Membranes were blocked in blocking buffer (5% skimmed milk in PBS-Tween 0.1%) for 1 h at room temperature, and after blocking blots were incubated with rabbit polyclonal anti-H3K9Ac (1:2000 dilution, Abcam, Cambridge, UK) and rabbit polyclonal anti-H3ac (K9 + K14 + K18 + K23 + K27) (1:2000 dilution, Abcam) overnight at 4 °C in ablocking buffer. […]

[2] = biological target: T1, recombinant HDAC2 (Homo sapiens, UniProt Q92769); test: HDAC2 fluorimetric biochemical assay
T1 construct: purchased BPS Bioscience 50002
Description: HDAC2 activity was determined using a fluorimetric assay at BPS Bioscience (San Diego, CA, USA). Compounds were dissolved in DMSO (Sigma), and serial dilutions were further diluted in HDAC assay buffer (BPS). These working solutions were incubated in duplicate at room temperature for 3 h in a mixture containing HDAC assay buffer, BSA (Fisher Scientific), and recombinant HDAC2 (BPS). The enzymatic reactions were initiated by the addition of a fluorogenic, acetylated peptide substrate (BPS) and proceeded for 30 min at 37 °C. Then, HDAC assay developer (BPS) was added, and after further incubation at room temperature, fluorescence intensity was measured at an excitation of 360 nm and an emission of 460 nm using a Tecan Infinite M1000 microplate reader. Trichostatin A (TSA, Selleckchem, Houston, TX, USA) was used as a reference inhibitor.
For the biochemical assays, the fluorescence signal relative to the background (assay mixture in the absence of the enzyme) was subtracted from each fluorescent intensity data. Activity in the presence of compound was expressed as a percentage of fluorescence intensity in the absence of the compound.

[3] = biological target: T2, human S1P1 receptor (Homo sapiens, UniProt P21453); test: CellKey impedance assay in CHO cells, agonistic and antagonistic effect; format: cell-based
T2 construct: host or cells: CHO cells
Description: Cell on impedance modulation, using the CellKey (Cellular Dielectric Spectroscopy) detection method (CellKey 96, MDS Sciex, Concord, ON, Canada) at Eurofins Pharma Discovery Services (Celle-Lévescault, France). CHO cells were seeded onto a 96-well plate at 15.104 cells/well in HBSS buffer (Invitrogen), 20 mM HEPES (Invitrogen), 10% FCS (Invitrogen), and 0.1% BSA (Sigma), allowed to equilibrate for 60 min at 28 °C. DMSO solutions of compounds were diluted in HBSS and 0.1% BSA. Plates were placed onto the system, and measurements were made at a temperature of 28 °C. To measure the agonistic effect, compounds and controls in duplicate were added simultaneously to all of the wells using an integrated fluidics system. Impedance measurements were monitored for 10 min after ligand addition. […] To measure the antagonistic effect, compounds and controls in duplicate were pre-incubated for 15 min before the addition of the reference agonist S1P at 0.01 µM (EC80). Impedance measurements were monitored for 10 min.
Evaluation of the agonistic (a) and antagonist (b) effect of the compounds on the human S1P1 receptor. […] Data are expressed as percentage of control (no compound) activity, n = 2. TSA was used as a control; (d) Cellular HDAC activity assay. […] SAHA was used as a control. Ponceau S staining was used as loading control. Veh: Vehicle. […] TSA: Trichostatin A. SAHA: suberoylanilide hydroxamic acid.

[4] = system: C57BL/6 mice with chronic EAE; test: Chronic EAE induced by MOG35–55, clinical score; format: in vivo, mouse
Description: Mice also received i.p. injections of 200 ng of pertussis toxin on days 0 and 2 [32]. Immunized mice were randomly distributed in different groups. […] MPTP is a prodrug which is converted to the neurotoxin 1-methyl-4-phenylpyridinium (MPP+) by MAO-B in vivo.
Compounds were administered once daily for five consecutive days in two cycles, from day 12 to 16 and from day 19 to 23 post-immunization. […] HPβCD was included to facilitate dissolution. Mice were scored daily for signs of EAE according to the following clinical scoring system: 0, no clinical signs; 0.5, partial loss of tail tonicity; 1, complete loss of tail tonicity; 2, flaccid tail and abnormal gait; 3, complete hind leg paralysis; 4, hind leg paralysis with hind body paresis; 5, hind and foreleg paralysis; and 6, death. Intermediate phenotypes were scored as a half integer. Animals were sacrificed when they kept a score of 5 more than 24 h. Investigators which administered the compounds and scored the animals were blinded to the treatments.

[5] = biological target: KDM1A (Homo sapiens, UniProt O60341); test: In vitro potency, KDM1A inhibition; format: biochemical

T2 sequence (P21453 whole entry): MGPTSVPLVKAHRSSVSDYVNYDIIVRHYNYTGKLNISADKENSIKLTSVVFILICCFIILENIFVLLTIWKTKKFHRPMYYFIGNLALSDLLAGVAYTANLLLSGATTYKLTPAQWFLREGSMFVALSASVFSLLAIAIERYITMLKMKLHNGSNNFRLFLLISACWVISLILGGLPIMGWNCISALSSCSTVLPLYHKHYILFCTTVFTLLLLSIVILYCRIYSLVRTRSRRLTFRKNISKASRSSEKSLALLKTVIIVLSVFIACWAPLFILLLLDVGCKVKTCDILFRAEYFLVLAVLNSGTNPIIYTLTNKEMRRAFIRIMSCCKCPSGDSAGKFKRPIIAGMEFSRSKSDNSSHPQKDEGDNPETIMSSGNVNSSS
T1 sequence (Q92769 whole entry): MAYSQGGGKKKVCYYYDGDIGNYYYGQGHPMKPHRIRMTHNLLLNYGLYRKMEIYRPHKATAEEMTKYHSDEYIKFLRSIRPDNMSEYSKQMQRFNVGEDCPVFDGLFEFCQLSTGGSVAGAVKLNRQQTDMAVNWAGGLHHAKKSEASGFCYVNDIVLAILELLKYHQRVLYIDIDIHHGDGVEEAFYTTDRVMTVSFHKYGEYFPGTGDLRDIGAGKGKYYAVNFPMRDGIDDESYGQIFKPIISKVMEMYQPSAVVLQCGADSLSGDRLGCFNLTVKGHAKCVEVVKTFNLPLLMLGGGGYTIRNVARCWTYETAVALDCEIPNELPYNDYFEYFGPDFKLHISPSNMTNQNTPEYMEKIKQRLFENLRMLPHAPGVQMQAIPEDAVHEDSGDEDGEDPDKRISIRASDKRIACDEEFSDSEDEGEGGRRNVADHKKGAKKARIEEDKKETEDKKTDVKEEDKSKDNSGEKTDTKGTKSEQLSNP

CCCCCCCCc1ccc(CC[C@](N)(CO)COP(=O)(O)O)cc1 [FTY720-P, Fingolimod Phosphate]
impact on cellular HDAC activity (acetylated H3 or H3K9 levels) [1]: unable to confirm the previous studies reporting that FTY720 or FTY720-P had any significant impact
impact on recombinant HDAC2 activity [2]: unable to confirm the previous studies reporting that FTY720 or FTY720-P had any significant impact

CCCCCCCCCCCCC/C=C/[C@@H](O)[C@@H](N)COP(=O)(O)O [S1P]
EC80, reference agonist ([3]; concentration used in antagonist mode): 10 nM
pEC50 ([3]; impedance, agonistic effect, read-out: EC50, reference agonist): 9.00

CCCCCCCCc1cccc(NC(=O)[C@H](N)COP(=O)(O)O)c1 [VPC23019]
pIC50 ([3]; impedance, vs S1P at 0.01 µM, read-out: IC50, reference antagonist): 7.57

C#CCN[C@@H]1CCc2ccccc21 [rasagiline, reference compound]
mice with no or only mild clinical signs at the end of the study ([4]; EAE experiment 2): 44%
effect on clinical course / disease severity ([4]; EAE experiment 2 (mild), p.o. ORY-2001 0.05, 0.5, 1 mg/kg, ORY-LSD1 90, 180 µg/kg, rasagiline 3 mg/kg): showed no overall protective effect
animals with severe signs (maximum clinical score 3.5–6) ([4]; EAE experiment 2, highest dose tested): 33%
onset of clinical signs ([4]; EAE experiment 2, rasagiline 3 mg/kg): slight delay of the onset of the clinical signs
pIC50 [5]: < 4.00

— article PMC9323733, “Efficacy of Vafidemstat in Experimental Autoimmune Encephalomyelitis Highlights the KDM1A/RCOR1/HDAC Epigenetic Axis in Multiple Sclerosis” (Pharmaceutics, 2022)
